Reference: patent publication US8666718B2, “Structure of the C-terminal region of the insulin receptor α-chain and of the insulin-like growth factor receptor α-chain” (The Walter and Eliza Hall Institute of Medical Research, priority 2009, dated 2014)
Read-outs that look alike come from different tables or passages of the source. Bridge positions count the residues as written; N and C are the ends. Ends that are not written are not given here. Peptide text beside a SMILES is read from it.

What was measured:
[1] = molecular target: T1, IR485 pre-complexed with a 10-fold molar ratio of IR classical αCT peptide (Homo sapiens, UniProt P06213, I448T/Q492K/Y171H); experiment: ITC titration against IR485 pre-complexed with a 10-fold molar ratio of IR αCT peptide; type: binding; conditions: 25° C., IR485 + 10 × IR-αCT, mean of three ± SEM
T1 construct: host or cells: Lec8 mutant CHO cells (IR485)
T1 sequence (P06213 with tags, fused parts or gaps Y171H/I448T/Q492K limits assumed, other chains not shown): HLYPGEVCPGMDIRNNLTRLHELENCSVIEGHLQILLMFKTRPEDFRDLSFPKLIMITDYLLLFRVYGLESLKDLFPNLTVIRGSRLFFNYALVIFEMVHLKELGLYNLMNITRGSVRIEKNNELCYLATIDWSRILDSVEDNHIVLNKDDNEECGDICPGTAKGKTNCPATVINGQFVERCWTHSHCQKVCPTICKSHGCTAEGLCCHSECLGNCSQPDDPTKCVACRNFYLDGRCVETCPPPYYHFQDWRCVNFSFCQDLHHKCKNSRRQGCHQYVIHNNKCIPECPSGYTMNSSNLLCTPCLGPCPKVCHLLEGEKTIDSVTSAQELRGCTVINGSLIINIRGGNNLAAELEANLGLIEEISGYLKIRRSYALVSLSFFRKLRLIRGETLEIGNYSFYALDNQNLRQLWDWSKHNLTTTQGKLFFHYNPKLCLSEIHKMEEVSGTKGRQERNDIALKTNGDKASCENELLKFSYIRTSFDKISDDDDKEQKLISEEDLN
Method: (§1) The IR485 construct of human IR was expressed in Lec8 mutant CHO cells and purified by gel filtration chromatography as described previously (Lou et al., 2006). IR485 consists of the first 485 residues of the mature human insulin receptor followed by the 16-residue sequence […] (SEQ ID NO: 10), which comprises a serine residue followed by an enterokinase cleavage site and a c-myc epitope tag. The c-myc tag was not removed for the ITC studies described here. IR485 was concentrated to 30 mg/ml in Tris-buffered saline (TBSA; 24.8 mM Tris-HCl (pH 8.0), 137 mM NaCl, 2.7 mM KCl and 0.02% sodium azide) using an Ultrafree centrifugal concentrator (Millipore, USA). Porcine insulin (Sigma-Aldrich, USA) was prepared in a zinc-free-form (termed ZFP-insulin) by extensive dialysis against 0.1% (v/v) acetic acid followed by lyophilization.
Peptides were prepared by dissolving in 10 mM HCl at ˜4 mg/ml concentration and then diluting with TBSA. Oxidation of peptides S519N20 and S519 (which contain two cysteine residues) was carried out by incubating the respective peptide (prepared at 1 mg/ml in 50 mM ammonium bicarbonate adjusted to pH 8.5 with ammonia solution) in the dark at room temperature for 2 days and then lyophilizing before use. […] All protein concentrations were determined by absorbance measurement at 280 nm using a NanoDrop 1000 spectrophotometer (Thermo Scientific, USA).
ITC experiments were performed using a VP-ITC isothermal titration calorimeter (MicroCal Inc., USA) with the calorimeter cell held at 25° C. All samples were degassed prior to injection or placement into the cell, and the instrument was temperature equilibrated prior to the start of the injections. In all experiments the volume of sample placed in the cell was 1.4 ml and the titrant was injected in 7 μl volumes over 14 s at 3 min intervals, with the total number of injections being 40. […] Data were analyzed using the instrument's software incorporated within the Origin 7 software (OriginLab, USA) and in all cases fitted as a single-site interaction using the methodologies outlined in the instrument's manual.

[2] = molecular target: T2, IR485 (first three N-terminal domains of the human insulin receptor) (Homo sapiens, UniProt P06213, I448T/Q492K/Y171H); experiment: ITC titration of hormones, αCT peptides and insulin mimetic peptides against IR485; type: binding; conditions: for ΔH^0 / −TΔS^0: sample IR485 alone, mean of three ± SEM
T2 construct: made in house; host or cells: Lec8 mutant CHO cells
T2 sequence (P06213 with tags, fused parts or gaps Y171H/I448T/Q492K): as the sequence (P06213 with tags, fused parts or gaps Y171H/I448T/Q492K limits assumed, other chains not shown) above
From the text: In order to study ligand binding to the first three domains of IR ectodomain, isothermal titration calorimetry (ITC) was used. ITC allowed a direct assay of the interactions between the IR ectodomain classical αCT peptide (residues 704-719; SEQ ID NO: 11) and IR485 (a construct consisting of the first three N-terminal domains of the IR; SEQ ID NO: 10), as well as the interaction between the analogous peptide of human IGF-1R and IR485. At the same time the thermodynamics of binding of the N- and C-terminal segments of the insulin mimetic peptide S519 (Schäffer et al., 2003) to IR485, as well as the binding of S519 itself to IR485 were examined. S519 ([…]; SEQ ID NO: 16) is a 36-residue peptide resulting from the affinity-optimization of two covalently-linked peptides, S371, a so-called “Site 1” peptide, and S446, a so-called “Site 2” peptide (Pillutla et al., 2002). […] Finally, the binding to IR485 of the IR αCT peptide carrying a F714A mutation (residues 704-719, […]; SEQ ID NO: 12) was examined.
The IR485 construct of human IR was expressed in Lec8 mutant CHO cells and purified by gel filtration chromatography as described previously (Lou et al., 2006). IR485 consists of the first 485 residues of the mature human insulin receptor followed by the 16-residue sequence […] (SEQ ID NO: 10), which comprises a serine residue followed by an enterokinase cleavage site and a c-myc epitope tag. The c-myc tag was not removed for the ITC studies described here. IR485 was concentrated to 30 mg/ml in Tris-buffered saline (TBSA; 24.8 mM Tris-HCl (pH 8.0), 137 mM NaCl, 2.7 mM KCl and 0.02% sodium azide) using an Ultrafree centrifugal concentrator (Millipore, USA). Porcine insulin (Sigma-Aldrich, USA) was prepared in a zinc-free-form (termed ZFP-insulin) by extensive dialysis against 0.1% (v/v) acetic acid followed by lyophilization. Human IGF-I was obtained from Novozymes GroPep (Australia) as “receptor grade” material.
The IR classical αCT peptide (residues 704-719, […]; SEQ ID NO: 11), the IGF-1R classical αCT peptide (residues 691-706, […]; SEQ ID NO: 14) as well as the F714A mutant of IR αCT (denoted IR αCT.714A; SEQ ID NO: 12) were obtained from Genscript Corporation (USA) at the >98% level of purity. The S519N20 peptide ([…]; SEQ ID NO: 17) and the S519C16 peptide ([…]; SEQ ID NO: 18) were obtained from AusPep (Australia) at the >90% level of purity. The S519 peptide ([…]; SEQ ID NO: 16) was obtained from Activotec (UK) at the >85% purity. Peptides were prepared by dissolving in 10 mM HCl at ˜4 mg/ml concentration and then diluting with TBSA. Oxidation of peptides S519N20 and S519 (which contain two cysteine residues) was carried out by incubating the respective peptide (prepared at 1 mg/ml in 50 mM ammonium bicarbonate adjusted to pH 8.5 with ammonia solution) in the dark at room temperature for 2 days and then lyophilizing before use. Oxidation was complete as determined by analysis with Ellman's reagent (5,5′-dithiobis-2-nitrobenzoate). All protein concentrations were determined by absorbance measurement at 280 nm using a NanoDrop 1000 spectrophotometer (Thermo Scientific, USA).
ITC experiments were performed using a VP-ITC isothermal titration calorimeter (MicroCal Inc., USA) with the calorimeter cell held at 25° C. All samples were degassed prior to injection or placement into the cell, and the instrument was temperature equilibrated prior to the start of the injections. In all experiments the volume of sample placed in the cell was 1.4 ml and the titrant was injected in 7 μl volumes over 14 s at 3 min intervals, with the total number of injections being 40. The sample contents were stirred at a speed of 310 rpm over the duration of the titration. All titrants (i.e. ZFP-insulin, IGF-I, IR αCT peptide, IGF-1R αCT peptide, IR αCT.714A peptide, S519, S519N20, and […]) were first injected into a solution of TBSA alone in order ascertain the heat of dilution, which was then subtracted from the data of interest as appropriate. […]

human IR = human IR (Homo sapiens, UniProt P06213); conditions: Schäffer et al., 2003; cited from earlier work
human IR, sequence (P06213 28-758 limits assumed): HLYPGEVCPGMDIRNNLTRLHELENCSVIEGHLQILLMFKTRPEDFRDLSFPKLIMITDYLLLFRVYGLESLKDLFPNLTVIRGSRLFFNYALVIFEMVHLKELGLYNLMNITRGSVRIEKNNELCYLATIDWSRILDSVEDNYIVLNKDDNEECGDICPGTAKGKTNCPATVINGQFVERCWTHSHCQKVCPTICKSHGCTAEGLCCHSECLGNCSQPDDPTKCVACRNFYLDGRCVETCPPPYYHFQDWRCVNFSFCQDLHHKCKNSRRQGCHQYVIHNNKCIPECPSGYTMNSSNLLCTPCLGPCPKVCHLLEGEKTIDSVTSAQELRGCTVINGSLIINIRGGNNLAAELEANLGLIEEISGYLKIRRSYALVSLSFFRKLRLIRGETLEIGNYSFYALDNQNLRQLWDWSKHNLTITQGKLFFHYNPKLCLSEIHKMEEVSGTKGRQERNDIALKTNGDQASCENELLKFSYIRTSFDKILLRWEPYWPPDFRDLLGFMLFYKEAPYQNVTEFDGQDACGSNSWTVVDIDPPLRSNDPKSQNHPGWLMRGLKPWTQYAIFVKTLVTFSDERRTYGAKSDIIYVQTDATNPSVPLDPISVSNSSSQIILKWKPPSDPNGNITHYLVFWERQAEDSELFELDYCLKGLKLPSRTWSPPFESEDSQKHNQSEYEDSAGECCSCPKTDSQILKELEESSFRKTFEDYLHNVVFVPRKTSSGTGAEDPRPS
human IR, sequence (P06213 763-1382 partner limits assumed): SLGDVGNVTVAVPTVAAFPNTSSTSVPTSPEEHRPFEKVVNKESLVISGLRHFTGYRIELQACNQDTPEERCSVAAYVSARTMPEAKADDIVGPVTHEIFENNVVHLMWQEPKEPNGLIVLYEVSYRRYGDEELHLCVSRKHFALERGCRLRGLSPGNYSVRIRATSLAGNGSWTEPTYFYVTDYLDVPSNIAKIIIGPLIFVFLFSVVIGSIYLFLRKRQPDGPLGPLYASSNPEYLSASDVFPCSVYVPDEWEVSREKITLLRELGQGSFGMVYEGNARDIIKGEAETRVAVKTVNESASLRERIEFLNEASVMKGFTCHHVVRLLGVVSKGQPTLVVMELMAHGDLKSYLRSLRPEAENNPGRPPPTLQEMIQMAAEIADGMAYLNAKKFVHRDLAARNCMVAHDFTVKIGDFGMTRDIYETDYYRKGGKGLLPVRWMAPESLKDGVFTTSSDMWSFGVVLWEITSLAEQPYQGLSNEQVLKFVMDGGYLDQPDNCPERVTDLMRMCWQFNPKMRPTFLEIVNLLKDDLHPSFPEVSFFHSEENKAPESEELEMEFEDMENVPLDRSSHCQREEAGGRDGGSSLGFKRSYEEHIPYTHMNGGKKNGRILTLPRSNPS

ZFP-insulin = molecular target: T3, ZFP-insulin (Sus scrofa, UniProt P01315); experiment: ITC titration of IR αCT peptide against ZFP-insulin; type: binding, Porcine; conditions: 25° C.
T3 construct: purchased Sigma-Aldrich
T3 sequence (P01315 25-54 limits assumed): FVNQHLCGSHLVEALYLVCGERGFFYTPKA
T3 sequence (P01315 88-108 limits assumed): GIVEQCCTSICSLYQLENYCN
Method: as §1, with “Porcine insulin (Sigma-Aldrich, USA) was prepared in a zinc-free-form (termed ZFP-insulin) by extensive dialysis against 0.1% (v/v) acetic acid followed by lyophilization.” left out
(§2) Peptides were prepared by dissolving in 10 mM HCl at ˜4 mg/ml concentration and then diluting with TBSA. […] All protein concentrations were determined by absorbance measurement at 280 nm using a NanoDrop 1000 spectrophotometer (Thermo Scientific, USA).
(§3) ITC experiments were performed using a VP-ITC isothermal titration calorimeter (MicroCal Inc., USA) with the calorimeter cell held at 25° C. […] Data were analyzed using the instrument's software incorporated within the Origin 7 software (OriginLab, USA) and in all cases fitted as a single-site interaction using the methodologies outlined in the instrument's manual.

IGF-I = molecular target: T4, IGF-I (Homo sapiens, UniProt P05019); experiment: ITC titration of IGF-1R αCT peptide against IGF-I; type: binding; conditions: 25° C.
T4 construct: purchased Novozymes GroPep (Australia)
T4 sequence (P05019 49-118 limits assumed): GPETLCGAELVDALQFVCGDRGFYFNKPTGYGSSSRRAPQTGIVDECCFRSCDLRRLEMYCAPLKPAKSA
Method: as §1, with “Porcine insulin (Sigma-Aldrich, USA) was prepared in a zinc-free-form (termed ZFP-insulin) by extensive dialysis against 0.1% (v/v) acetic acid followed by lyophilization.” left out
as §2, §3

[3] = molecular target: T5, IR485 pre-complexed with a 10-fold molar ratio of IGF-1R classical αCT peptide (Homo sapiens, UniProt P06213+P08069, I448T/Q492K/Y171H); experiment: ITC titration against IR485 pre-complexed with a 10-fold molar ratio of IGF-1R αCT peptide; type: binding; conditions: 25° C., IR485 + 10 × IGF1R-αCT, mean of three ± SEM
T5 construct: host or cells: Lec8 mutant CHO cells (IR485)
T5 sequence (P06213 with tags, fused parts or gaps Y171H/I448T/Q492K limits assumed, other chains not shown): as the sequence (P06213 with tags, fused parts or gaps Y171H/I448T/Q492K limits assumed, other chains not shown) above
Method: as §1, with “Porcine insulin (Sigma-Aldrich, USA) was prepared in a zinc-free-form (termed ZFP-insulin) by extensive dialysis against 0.1% (v/v) acetic acid followed by lyophilization.” left out
as §2, §3

What does the source list for CC(C)C[C@H](NC(=O)[C@H](CCC(N)=O)NC(=O)[C@H](CCCNC(=N)N)NC(=O)[C@H](CCC(=O)O)NC(=O)[C@H](Cc1ccccc1)NC(=O)[C@H](Cc1c[nH]c2ccccc12)NC(=O)[C@H](CC(=O)O)NC(=O)[C@H](Cc1ccc(O)cc1)NC(=O)[C@H](Cc1ccccc1)NC(=O)[C@H](CO)NC(=O)[C@H](CCC(=O)O)NC(=O)[C@H](CC(=O)O)NC(=O)[C@H](CC(C)C)NC(=O)[C@H](CO)NC(=O)CN)C(=O)NCC(=O)O [S519C16]?
ΔH^0 [1]: -7.89 ± 0.48 kcal/mol; −TΔS^0 [1]: -2.63 ± 0.72 kcal/mol; Kd [2]: 0.0026 ± 0.0007 µM; ΔH^0 ([2]; ITC, 25° C.): -14.6 ± 0.96 kcal/mol; −TΔS^0 ([2]; ITC, 25° C.): 2.87 ± 0.96 kcal/mol

For CC(C)C[C@H](NC(=O)[C@@H](N)CO)C(=O)N[C@@H](CCC(=O)O)C(=O)N[C@@H](CCC(=O)O)C(=O)N[C@@H](CCC(=O)O)C(=O)N[C@@H](Cc1c[nH]c2ccccc12)C(=O)N[C@@H](C)C(=O)N[C@@H](CCC(N)=O)C(=O)N[C@H](C(=O)N[C@@H](CCC(=O)O)C(=O)N[C@H]1CSSC[C@@H](C(=O)N2CCC[C@H]2C(=O)N[C@@H](CO)C(=O)O)NC(=O)CNC(=O)[C@H](CCCNC(=N)N)NC(=O)CNC(=O)[C@H](Cc2ccc(O)cc2)NC(=O)[C@H](C(C)C)NC(=O)[C@H](CCC(=O)O)NC1=O)C(C)C [S519N20] (H-SLEEEWAQVECEVYGRGCPS-OH; disulfide 11-18), which Kd [2] is on record?
Its Kd is greater than 1000 µM.

For CC(C)C[C@H](NC(=O)[C@H](CCC(N)=O)NC(=O)[C@H](CCCNC(=N)N)NC(=O)[C@H](CCC(=O)O)NC(=O)[C@H](Cc1ccccc1)NC(=O)[C@H](Cc1c[nH]c2ccccc12)NC(=O)[C@H](CC(=O)O)NC(=O)[C@H](Cc1ccc(O)cc1)NC(=O)[C@H](Cc1ccccc1)NC(=O)[C@H](CO)NC(=O)[C@H](CCC(=O)O)NC(=O)[C@H](CC(=O)O)NC(=O)[C@H](CC(C)C)NC(=O)[C@H](CO)NC(=O)CNC(=O)[C@H](CO)NC(=O)[C@@H]1CCCN1C(=O)[C@@H]1CSSC[C@H](NC(=O)[C@H](CCC(=O)O)NC(=O)[C@@H](NC(=O)[C@H](CCC(N)=O)NC(=O)[C@H](C)NC(=O)[C@H](Cc2c[nH]c3ccccc23)NC(=O)[C@H](CCC(=O)O)NC(=O)[C@H](CCC(=O)O)NC(=O)[C@H](CCC(=O)O)NC(=O)[C@H](CC(C)C)NC(=O)[C@@H](N)CO)C(C)C)C(=O)N[C@@H](CCC(=O)O)C(=O)N[C@@H](C(C)C)C(=O)N[C@@H](Cc2ccc(O)cc2)C(=O)NCC(=O)N[C@@H](CCCNC(=N)N)C(=O)NCC(=O)N1)C(=O)NCC(=O)O [S519] (H-SLEEEWAQVECEVYGRGCPSGSLDESFYDWFERQLG-OH; disulfide 11-18; N-terminus and C-terminus assumed), which Kd (human IR) is on record?
Its Kd is 20 pM.

And the Kd [2]?
The Kd was 0.011 ± 0.003 µM.

What about the “ΔH^0” value ([2]; ITC, 25° C.) of the same compound?
Its value is -16.5 ± 1.4 kcal/mol.

And the “−TΔS^0” value ([2]; ITC, 25° C.)?
Its value is 5.74 ± 1.4 kcal/mol.

Which Kd [2] does the source give for TFEDYLHNVVAVPRPS [IR-αCT.714A] here?
Its Kd is 6.5 ± 1.7 µM.

Which Kd (ZFP-insulin; interaction with ZFP-insulin, read-out: Kd (estimated, weaker than)) does the source give for TFEDYLHNVVFVPRPS [IR-αCT] here?
Its Kd is greater than 1000 µM.

And the Kd (ZFP-insulin; sample ZFP-insulin 20 μM, titrant 200 μM, read-out: Kd)?
The Kd was greater than 1000 µM.

What about the Kd [2] of the same compound?
Its Kd is 3.9 ± 1.1 µM.

Which Kd (IGF-I; interaction with IGF-I, read-out: Kd (estimated, weaker than)) does the source give for VFENFLHNSIFVPRPE [IGF1R-αCT] here?
The Kd was greater than 1000 µM.

And the Kd (IGF-I; sample IGF-I (printed IGF-IR) 20 μM, titrant 200 μM, read-out: Kd)?
Its Kd is greater than 1000 µM.

And the Kd [2]?
The Kd was 17.6 ± 2.1 µM.

Which Kd [1] does the source give for “ZFP-insulin: Porcine insulin (Sigma-Aldrich) prepared in a zinc-free form by dialysis against acetic acid and lyophilization” here?
Its Kd is 0.017 ± 0.004 µM.

And the Kd [3]?
The Kd was 0.0057 ± 0.0011 µM.

And the Kd ([2]; ITC, 25° C., TBSA, sample IR485, mean of three experiments ± SEM, single-site model, read-out: Kd)?
Its Kd is greater than 1000 µM.
